Reference: PubChem BioAssay AID210 (DTP/NCI, 2004)
Where “and” joins values, the source holds several entries; their conditions need not be identical. Equal entries are not always repeated. Toxic doses and inconclusive results are not listed.

System: CD2F1 mice, ip Colon 26 adenocarcinoma, median survival T/C
Experiment: NCI In Vivo Anticancer Drug Screen. Data for tumor model Colon 26 Adenocarcinoma (intraperitoneal) in CD2F1 (CDF1) mice
Details: endpoint: median survival time, higher = longer survival
Method: The antitumor activity of compounds was measured in mice bearing transplantable tumors. Survival or tumor size were measured and the results are expressed as the measurement made in the treated group (T) divided by the measurement made in the vehicle treated control group (C). The tumor model used in this assay is Colon 26 Adenocarcinoma (intraperitoneal) in CD2F1 (CDF1) mice

[1] = dose: 25.0 mg/kg/injection, schedule: Q04DX003 (ip), vehicle: Klucel (hydroxypropylcellulose) (HPC)
[2] = dose: 50.0 mg/kg/injection, schedule: Q04DX003 (ip), vehicle: Klucel (hydroxypropylcellulose) (HPC)
[3] = dose: 100.0 mg/kg/injection, schedule: Q04DX003 (ip), vehicle: Klucel (hydroxypropylcellulose) (HPC)
[4] = dose: 200.0 mg/kg/injection, schedule: Q04DX003 (ip), vehicle: Klucel (hydroxypropylcellulose) (HPC)
[5] = dose: 400.0 mg/kg/injection, schedule: Q04DX003 (ip), vehicle: Klucel (hydroxypropylcellulose) (HPC)
[6] = dose: 50.0 mg/kg/injection, schedule: Q04DX003 (ip), vehicle: saline
[7] = dose: 12.5 mg/kg/injection, schedule: Q04DX003 (ip), vehicle: Klucel (hydroxypropylcellulose) (HPC)
[8] = dose: 25.0 mg/kg/injection, schedule: Q04DX002 (ip), vehicle: Klucel (hydroxypropylcellulose) (HPC)
[9] = dose: 50.0 mg/kg/injection, schedule: Q04DX002 (ip), vehicle: Klucel (hydroxypropylcellulose) (HPC)
[10] = dose: 100.0 mg/kg/injection, schedule: Q04DX002 (ip), vehicle: Klucel (hydroxypropylcellulose) (HPC)
[11] = dose: 200.0 mg/kg/injection, schedule: Q04DX002 (ip), vehicle: Klucel (hydroxypropylcellulose) (HPC)

Compound: CN(C)C(=O)c1cccc(COc2ccc(N3C(N)=NC(N)=NC3(C)C)cc2Cl)c1
- T/C (dose: 24.0 mg/kg/injection, schedule: Q06HX018 (ip), vehicle: saline): 96 % of control
- T/C (dose: 36.0 mg/kg/injection, schedule: Q06HX018 (ip), vehicle: saline): 98 % of control

Compound: CCCCCC(=O)O[C@]1(C(C)=O)CC[C@H]2[C@@H]3CCC4=CC(=O)CC[C@]4(C)[C@H]3CC[C@@]21C
- T/C [1]: 101 % of control
- T/C [2]: 106 % of control
- T/C [3]: 100 % of control
- T/C [4]: 106 % of control
- T/C [5]: 103 % of control

Compound: C1CN(P2(N3CC3)=NP(N3CC3)(N3CC3)=NP(N3CC3)(N3CC3)=N2)CCO1 (stereo not given)
- T/C (dose: 6.25 mg/kg/injection, schedule: Q04DX003 (ip), vehicle: saline): 92 % of control
- T/C (dose: 12.5 mg/kg/injection, schedule: Q04DX003 (ip), vehicle: saline): 121 % of control
- T/C [6]: 163 % of control

Compound: CC[C@]1(O)C[C@H]2CN(CCc3c([nH]c4ccccc34)[C@@](C(=O)OC)(c3cc4c(cc3OC)N(C=O)[C@H]3[C@@](O)(C(=O)OC)[C@H](OC(C)=O)[C@]5(CC)C=CCN6CC[C@]43[C@@H]65)C2)C1
- T/C (dose: 0.95 mg/kg/injection, schedule: Q07DX003 (ip), vehicle: saline): 112 % of control and 115 % of control
- T/C (dose: 1.4 mg/kg/injection, schedule: Q07DX003 (ip), vehicle: saline): 120 % of control and 123 % of control
- T/C (dose: 2.1 mg/kg/injection, schedule: Q07DX003 (ip), vehicle: saline): 105 % of control
- T/C (dose: 3.0 mg/kg/injection, schedule: Q07DX003 (ip), vehicle: saline): 99 % of control

Compound: CN(C)CCNc1cccc2c1C(=O)c1cccc(NCCN(C)C)c1C2=O
- T/C (dose: 1.88 mg/kg/injection, schedule: Q01DX009 (ip), vehicle: saline): 103 % of control
- T/C (dose: 3.75 mg/kg/injection, schedule: Q01DX009 (ip), vehicle: saline): 108 % of control
- T/C (dose: 7.5 mg/kg/injection, schedule: Q01DX009 (ip), vehicle: saline): 99 % of control
- T/C (dose: 15.0 mg/kg/injection, schedule: Q01DX009 (ip), vehicle: saline): 113 % of control

Compound: [I][Hg][CH2]C1COC([CH2][Hg][I])CO1 (stereo not given)
- T/C (dose: 12.5 mg/kg/injection, schedule: Q04DX003 (ip), vehicle: saline with Tween-80): 117 % of control
- T/C (dose: 25.0 mg/kg/injection, schedule: Q04DX003 (ip), vehicle: saline with Tween-80): 109 % of control
- T/C (dose: 50.0 mg/kg/injection, schedule: Q04DX003 (ip), vehicle: saline with Tween-80): 96 % of control

Compound: C[C@]12C=CC(=O)C=C1CC[C@@H]1[C@@H]2C(=O)C[C@@]2(C)[C@H]1CC[C@]2(O)C(=O)CO
- T/C [1]: 105 % of control
- T/C [2]: 100 % of control
- T/C [3]: 100 % of control
- T/C [4]: 96 % of control
- T/C [5]: 98 % of control

Compound: COc1cccc2c1C(=N)c1c(O)c3c(c(O)c1C2=O)C[C@@](O)(C(C)=O)C[C@@H]3OC1CC(N)C(O)C(C)O1 (stereo not given in full)
- T/C (dose: 3.46 mg/kg/injection, schedule: Q04DX003 (ip), vehicle: water): 119 % of control
- T/C (dose: 5.76 mg/kg/injection, schedule: Q04DX003 (ip), vehicle: water): 119 % of control
- T/C (dose: 9.6 mg/kg/injection, schedule: Q04DX003 (ip), vehicle: water): 94 % of control

Compound: O=C1c2ccccc2C(=O)c2c(NCCN3CCNCC3)ccc(NCCN3CCNCC3)c21
- T/C (dose: 4.0 mg/kg/injection, schedule: Q01DX009 (ip), vehicle: acid diluted with saline): 106 % of control
- T/C (dose: 8.0 mg/kg/injection, schedule: Q01DX009 (ip), vehicle: acid diluted with saline): 114 % of control
- T/C (dose: 16.0 mg/kg/injection, schedule: Q01DX009 (ip), vehicle: acid diluted with saline): 114 % of control

Compound: CC1CC(C)CC(C)C(O)/C(C#N)=C/C=C/CC(C2CCCC2C(=O)O)OC(=O)CC(O)C(C)C1 (stereo not given)
- T/C (dose: 0.5 mg/kg/injection, schedule: Q04DX003 (ip), vehicle: saline): 103 % of control
- T/C (dose: 1.0 mg/kg/injection, schedule: Q04DX003 (ip), vehicle: saline): 105 % of control
- T/C (dose: 2.0 mg/kg/injection, schedule: Q04DX003 (ip), vehicle: saline): 100 % of control

Compound: c1cc[c]([Sn][c]2ccccc2)cc1
- T/C (dose: 0.62 mg/kg/injection, schedule: Q04DX003 (ip), vehicle: saline with Tween-80): 97 % of control
- T/C (dose: 0.62 mg/kg/injection, schedule: Q04DX003 (ip), vehicle: saline): 105 % of control
- T/C (dose: 1.25 mg/kg/injection, schedule: Q04DX003 (ip), vehicle: saline with Tween-80): 92 % of control
- T/C (dose: 1.25 mg/kg/injection, schedule: Q04DX003 (ip), vehicle: saline): 112 % of control
- T/C (dose: 2.5 mg/kg/injection, schedule: Q04DX003 (ip), vehicle: saline with Tween-80): 100 % of control
- T/C (dose: 2.5 mg/kg/injection, schedule: Q04DX003 (ip), vehicle: saline): 107 % of control
- T/C (dose: 5.0 mg/kg/injection, schedule: Q04DX003 (ip), vehicle: saline with Tween-80): 108 % of control
- T/C (dose: 5.0 mg/kg/injection, schedule: Q04DX003 (ip), vehicle: saline): 117 % of control
- T/C (dose: 10.0 mg/kg/injection, schedule: Q04DX003 (ip), vehicle: saline): 86 % of control

Compound: CCc1c(CC(=O)O)c2cc(C)ccc2n1Cc1ccc(Cl)cc1
- T/C (dose: 6.25 mg/kg/injection, schedule: Q04DX003 (ip), vehicle: Klucel (hydroxypropylcellulose) (HPC)): 89 % of control
- T/C [7]: 95 % of control
- T/C [1]: 97 % of control
- T/C [2]: 100 % of control
- T/C [3]: 111 % of control

Compound: CNc1nc2c(N)ncnc2n1C1OC(CO)C(O)C1O (stereo not given)
- T/C (dose: 0.78 mg/kg/injection, schedule: Q04DX002 (ip), vehicle: saline): 92 % of control
- T/C (dose: 1.56 mg/kg/injection, schedule: Q04DX002 (ip), vehicle: saline): 93 % of control
- T/C (dose: 3.13 mg/kg/injection, schedule: Q04DX002 (ip), vehicle: saline): 92 % of control
- T/C (dose: 6.25 mg/kg/injection, schedule: Q04DX002 (ip), vehicle: saline): 96 % of control
- T/C (dose: 12.5 mg/kg/injection, schedule: Q04DX002 (ip), vehicle: saline): 102 % of control
- T/C (dose: 25.0 mg/kg/injection, schedule: Q04DX002 (ip), vehicle: saline): 96 % of control

Compound: CC(=O)OCc1cc(=O)n(C)c2c3c4c(cc12)c(C)cc(=O)n4CO3
- T/C [7]: 106 % of control
- T/C [1]: 106 % of control
- T/C [2]: 115 % of control
- T/C [4]: 115 % of control

Compound: CC[C@H](CC[C@@H](C)[C@H]1CC[C@H]2[C@@H]3CC=C4C[C@@H](OC(C)=O)CC[C@]4(C)[C@H]3CC[C@]12C)C(C)C
- T/C [8]: 88 % of control
- T/C [9]: 92 % of control
- T/C [10]: 102 % of control
- T/C [11]: 90 % of control
- T/C (dose: 400.0 mg/kg/injection, schedule: Q04DX002 (ip), vehicle: Klucel (hydroxypropylcellulose) (HPC)): 97 % of control

Compound: O=C1C=CN(C2OC(CO)C(O)C2O)C(=O)C1 (stereo not given)
- T/C (dose: 25.0 mg/kg/injection, schedule: Q01DX005 (ip), vehicle: saline): 109 % of control
- T/C (dose: 25.0 mg/kg/injection, schedule: Q04DX003 (ip), vehicle: saline): 112 % of control
- T/C (dose: 50.0 mg/kg/injection, schedule: Q01DX005 (ip), vehicle: saline): 102 % of control
- T/C [6]: 109 % of control
- T/C (dose: 100.0 mg/kg/injection, schedule: Q01DX005 (ip), vehicle: saline): 98 % of control
- T/C (dose: 100.0 mg/kg/injection, schedule: Q04DX003 (ip), vehicle: saline): 106 % of control
- T/C (dose: 200.0 mg/kg/injection, schedule: Q01DX005 (ip), vehicle: saline): 106 % of control
- T/C (dose: 200.0 mg/kg/injection, schedule: Q04DX003 (ip), vehicle: saline): 102 % of control
- T/C (dose: 400.0 mg/kg/injection, schedule: Q01DX005 (ip), vehicle: saline): 102 % of control
- T/C (dose: 400.0 mg/kg/injection, schedule: Q04DX003 (ip), vehicle: saline): 109 % of control

Compound: C[C@]12CC[C@@H]3c4ccc(O)cc4CC[C@H]3[C@@H]1CC[C@@H]2O
- T/C (dose: 6.25 mg/kg/injection, schedule: Q04DX002 (ip), vehicle: Klucel (hydroxypropylcellulose) (HPC)): 103 % of control
- T/C (dose: 12.5 mg/kg/injection, schedule: Q04DX002 (ip), vehicle: Klucel (hydroxypropylcellulose) (HPC)): 95 % of control
- T/C [8]: 94 % of control
- T/C [9]: 103 % of control
- T/C [10]: 100 % of control
- T/C [11]: 98 % of control
